Measured values taken from ChEMBL document CHEMBL6078670, “Discovery of a potent and selective TRPC3 antagonist with neuroprotective effects” (Bioorg Med Chem, 2025).
Values after ≈ are worked out from the molar mass of the structure shown. Active and inactive are the calls of the source. The calls are words filed in the database; no cut-off is given here.

Key:
[1] = target: T1, Short transient receptor potential channel 3 (Homo sapiens) (UniProt Q13507); experiment: Antagonist activity at human TRPC3 expressed in HEK293 cells assessed as inhibition of carbachol-induced activity at 10 uM measured after 48 hrs by Whole-cell patch clamp electrophysiology relative to control; assay type: cell-based
T1 sequence (whole entry): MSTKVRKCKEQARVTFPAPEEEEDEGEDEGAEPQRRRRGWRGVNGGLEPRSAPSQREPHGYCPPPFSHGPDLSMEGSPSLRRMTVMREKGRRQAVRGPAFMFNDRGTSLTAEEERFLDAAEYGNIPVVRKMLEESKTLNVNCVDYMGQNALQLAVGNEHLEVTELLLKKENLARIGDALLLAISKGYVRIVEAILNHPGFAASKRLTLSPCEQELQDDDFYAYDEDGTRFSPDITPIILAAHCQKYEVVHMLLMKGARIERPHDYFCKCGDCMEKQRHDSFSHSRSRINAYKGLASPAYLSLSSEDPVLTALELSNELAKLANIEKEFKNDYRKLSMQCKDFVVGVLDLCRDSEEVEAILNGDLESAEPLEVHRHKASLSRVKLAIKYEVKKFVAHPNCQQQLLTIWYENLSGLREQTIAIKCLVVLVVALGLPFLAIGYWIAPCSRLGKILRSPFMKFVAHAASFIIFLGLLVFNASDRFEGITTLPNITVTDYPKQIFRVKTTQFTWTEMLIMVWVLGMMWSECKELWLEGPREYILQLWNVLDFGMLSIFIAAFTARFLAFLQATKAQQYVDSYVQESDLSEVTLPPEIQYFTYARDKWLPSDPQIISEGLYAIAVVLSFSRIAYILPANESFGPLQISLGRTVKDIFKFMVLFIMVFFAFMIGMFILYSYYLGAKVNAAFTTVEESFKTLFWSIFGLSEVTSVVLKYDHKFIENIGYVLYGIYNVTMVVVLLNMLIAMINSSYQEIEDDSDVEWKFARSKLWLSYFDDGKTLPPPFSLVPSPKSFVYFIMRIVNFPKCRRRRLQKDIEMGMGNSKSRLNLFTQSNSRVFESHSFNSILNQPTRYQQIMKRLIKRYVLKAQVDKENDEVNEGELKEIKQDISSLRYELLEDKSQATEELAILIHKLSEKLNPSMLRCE

[2] = target: T2, Short transient receptor potential channel 6 (Homo sapiens) (UniProt Q9Y210); experiment: Antagonist activity at human TRPC6 expressed in HEK293 cells assessed as inhibition of carbachol-induced activity at 10 uM measured after 48 hrs by Whole-cell patch clamp electrophysiology; assay type: cell-based
T2 sequence (whole entry): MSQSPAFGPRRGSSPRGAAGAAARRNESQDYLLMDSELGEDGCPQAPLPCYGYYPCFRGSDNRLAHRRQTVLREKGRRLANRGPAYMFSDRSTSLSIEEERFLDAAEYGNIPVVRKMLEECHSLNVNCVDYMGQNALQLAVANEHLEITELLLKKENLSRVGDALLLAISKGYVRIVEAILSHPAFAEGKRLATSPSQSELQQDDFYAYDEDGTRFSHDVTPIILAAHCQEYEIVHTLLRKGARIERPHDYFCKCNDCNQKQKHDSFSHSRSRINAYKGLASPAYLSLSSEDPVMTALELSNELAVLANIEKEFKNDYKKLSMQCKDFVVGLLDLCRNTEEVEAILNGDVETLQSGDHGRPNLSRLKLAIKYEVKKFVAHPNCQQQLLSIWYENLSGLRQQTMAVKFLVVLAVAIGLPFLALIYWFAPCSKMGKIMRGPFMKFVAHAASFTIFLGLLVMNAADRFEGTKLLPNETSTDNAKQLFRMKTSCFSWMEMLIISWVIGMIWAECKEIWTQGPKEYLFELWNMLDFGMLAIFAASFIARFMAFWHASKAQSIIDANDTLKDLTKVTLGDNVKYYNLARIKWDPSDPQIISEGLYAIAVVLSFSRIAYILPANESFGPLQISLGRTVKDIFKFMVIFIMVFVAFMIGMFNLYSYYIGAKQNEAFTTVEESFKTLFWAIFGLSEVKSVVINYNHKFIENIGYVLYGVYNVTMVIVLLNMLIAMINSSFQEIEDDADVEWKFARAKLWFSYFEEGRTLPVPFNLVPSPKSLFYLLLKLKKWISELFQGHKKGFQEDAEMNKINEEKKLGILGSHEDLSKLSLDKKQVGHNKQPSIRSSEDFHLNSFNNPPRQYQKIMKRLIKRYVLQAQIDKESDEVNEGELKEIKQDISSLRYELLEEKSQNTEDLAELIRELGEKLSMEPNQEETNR

[3] = target: T3, Short transient receptor potential channel 7 (Homo sapiens) (UniProt Q9HCX4); experiment: Antagonist activity at human TRPC7 expressed in HEK293 cells assessed as inhibition of carbachol-induced activity at 10 uM measured after 48 hrs by Whole-cell patch clamp electrophysiology; assay type: cell-based
T3 sequence (whole entry): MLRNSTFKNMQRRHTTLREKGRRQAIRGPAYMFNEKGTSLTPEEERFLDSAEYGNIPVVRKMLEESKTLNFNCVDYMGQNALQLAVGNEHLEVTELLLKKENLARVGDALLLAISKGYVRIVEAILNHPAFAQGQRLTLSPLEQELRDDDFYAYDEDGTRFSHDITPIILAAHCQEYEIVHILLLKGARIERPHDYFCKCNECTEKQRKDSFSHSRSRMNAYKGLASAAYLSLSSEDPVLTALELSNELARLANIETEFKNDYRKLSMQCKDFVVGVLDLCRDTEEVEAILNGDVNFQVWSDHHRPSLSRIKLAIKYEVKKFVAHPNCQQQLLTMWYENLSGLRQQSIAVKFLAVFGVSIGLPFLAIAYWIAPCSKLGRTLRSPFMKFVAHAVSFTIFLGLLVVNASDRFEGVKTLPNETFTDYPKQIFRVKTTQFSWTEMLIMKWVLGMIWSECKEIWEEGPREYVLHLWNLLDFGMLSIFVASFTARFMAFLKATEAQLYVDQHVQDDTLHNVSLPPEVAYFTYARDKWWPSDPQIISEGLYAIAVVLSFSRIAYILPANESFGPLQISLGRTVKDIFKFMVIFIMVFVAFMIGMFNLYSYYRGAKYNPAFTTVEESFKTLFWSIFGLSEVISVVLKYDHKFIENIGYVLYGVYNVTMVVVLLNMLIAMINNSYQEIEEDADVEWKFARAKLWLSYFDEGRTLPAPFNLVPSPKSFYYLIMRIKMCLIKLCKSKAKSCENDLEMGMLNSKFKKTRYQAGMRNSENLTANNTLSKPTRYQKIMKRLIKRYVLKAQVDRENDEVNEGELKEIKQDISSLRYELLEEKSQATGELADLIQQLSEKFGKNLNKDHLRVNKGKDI

[4] = target: Short transient receptor potential channel 1 (Mus musculus) (UniProt Q61056); experiment: Antagonist activity at mouse TRPC1 expressed in HEK293 cells assessed as inhibition of carbachol-induced activity at 10 uM measured after 48 hrs by Whole-cell patch clamp electrophysiology; assay type: cell-based
Short transient receptor potential channel 1 (Mus musculus), sequence (Q61056 whole entry): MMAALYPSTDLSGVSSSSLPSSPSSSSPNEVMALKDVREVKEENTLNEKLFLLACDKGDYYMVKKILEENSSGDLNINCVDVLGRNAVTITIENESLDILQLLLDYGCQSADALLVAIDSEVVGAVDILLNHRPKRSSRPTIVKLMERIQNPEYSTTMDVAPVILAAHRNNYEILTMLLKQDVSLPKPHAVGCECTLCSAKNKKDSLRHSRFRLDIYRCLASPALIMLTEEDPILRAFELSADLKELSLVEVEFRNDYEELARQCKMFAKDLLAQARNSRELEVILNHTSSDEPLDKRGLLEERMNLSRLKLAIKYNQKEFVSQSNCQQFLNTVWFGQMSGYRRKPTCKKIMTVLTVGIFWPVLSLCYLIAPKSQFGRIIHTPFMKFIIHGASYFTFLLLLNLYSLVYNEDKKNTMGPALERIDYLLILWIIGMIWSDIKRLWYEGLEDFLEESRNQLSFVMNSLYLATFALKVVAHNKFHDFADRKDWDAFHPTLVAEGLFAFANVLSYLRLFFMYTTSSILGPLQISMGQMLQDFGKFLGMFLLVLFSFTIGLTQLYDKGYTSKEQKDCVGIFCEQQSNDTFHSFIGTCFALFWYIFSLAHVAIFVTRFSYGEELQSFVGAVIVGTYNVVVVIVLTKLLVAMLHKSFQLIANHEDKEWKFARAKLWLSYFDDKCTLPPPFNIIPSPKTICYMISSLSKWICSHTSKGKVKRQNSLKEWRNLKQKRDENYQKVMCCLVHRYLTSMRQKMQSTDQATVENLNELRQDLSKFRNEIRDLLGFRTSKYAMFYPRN

[5] = target: Short transient receptor potential channel 1 (Rattus norvegicus) (UniProt Q9QX01); experiment: Antagonist activity at rat TRPC1 expressed in HEK293 cells assessed as inhibition of carbachol-induced activity at 10 uM measured after 48 hrs by Whole-cell patch clamp electrophysiology; assay type: cell-based
Short transient receptor potential channel 1 (Rattus norvegicus), sequence (Q9QX01 whole entry): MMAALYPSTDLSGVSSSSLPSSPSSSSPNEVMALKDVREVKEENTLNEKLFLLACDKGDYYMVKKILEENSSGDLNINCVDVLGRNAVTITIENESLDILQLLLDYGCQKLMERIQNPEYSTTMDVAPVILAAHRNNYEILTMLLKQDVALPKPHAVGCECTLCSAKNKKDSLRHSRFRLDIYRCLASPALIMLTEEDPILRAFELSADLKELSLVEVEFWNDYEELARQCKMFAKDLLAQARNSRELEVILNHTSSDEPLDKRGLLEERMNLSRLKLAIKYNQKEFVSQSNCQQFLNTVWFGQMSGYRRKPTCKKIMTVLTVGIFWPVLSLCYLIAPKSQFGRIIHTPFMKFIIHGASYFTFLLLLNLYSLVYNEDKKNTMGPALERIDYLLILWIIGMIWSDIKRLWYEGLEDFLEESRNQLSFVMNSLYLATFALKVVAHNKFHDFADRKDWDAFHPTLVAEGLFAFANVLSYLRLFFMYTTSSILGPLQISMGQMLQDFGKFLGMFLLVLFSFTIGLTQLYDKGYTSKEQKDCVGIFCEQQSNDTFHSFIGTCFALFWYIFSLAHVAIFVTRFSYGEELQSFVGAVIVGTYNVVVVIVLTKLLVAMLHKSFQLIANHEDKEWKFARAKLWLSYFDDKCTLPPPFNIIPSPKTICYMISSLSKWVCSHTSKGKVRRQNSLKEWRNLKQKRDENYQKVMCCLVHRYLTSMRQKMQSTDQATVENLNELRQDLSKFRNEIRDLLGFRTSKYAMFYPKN

[6] = target: Transient receptor potential cation channel subfamily M member 8 (Rattus norvegicus) (UniProt Q8R455); experiment: Antagonist activity at rat TRPM8 expressed in HEK293 cells assessed as inhibition of carbachol-induced activity at 10 uM measured after 48 hrs by Whole-cell patch clamp electrophysiology; assay type: cell-based
Transient receptor potential cation channel subfamily M member 8 (Rattus norvegicus), sequence (Q8R455 whole entry, looked up): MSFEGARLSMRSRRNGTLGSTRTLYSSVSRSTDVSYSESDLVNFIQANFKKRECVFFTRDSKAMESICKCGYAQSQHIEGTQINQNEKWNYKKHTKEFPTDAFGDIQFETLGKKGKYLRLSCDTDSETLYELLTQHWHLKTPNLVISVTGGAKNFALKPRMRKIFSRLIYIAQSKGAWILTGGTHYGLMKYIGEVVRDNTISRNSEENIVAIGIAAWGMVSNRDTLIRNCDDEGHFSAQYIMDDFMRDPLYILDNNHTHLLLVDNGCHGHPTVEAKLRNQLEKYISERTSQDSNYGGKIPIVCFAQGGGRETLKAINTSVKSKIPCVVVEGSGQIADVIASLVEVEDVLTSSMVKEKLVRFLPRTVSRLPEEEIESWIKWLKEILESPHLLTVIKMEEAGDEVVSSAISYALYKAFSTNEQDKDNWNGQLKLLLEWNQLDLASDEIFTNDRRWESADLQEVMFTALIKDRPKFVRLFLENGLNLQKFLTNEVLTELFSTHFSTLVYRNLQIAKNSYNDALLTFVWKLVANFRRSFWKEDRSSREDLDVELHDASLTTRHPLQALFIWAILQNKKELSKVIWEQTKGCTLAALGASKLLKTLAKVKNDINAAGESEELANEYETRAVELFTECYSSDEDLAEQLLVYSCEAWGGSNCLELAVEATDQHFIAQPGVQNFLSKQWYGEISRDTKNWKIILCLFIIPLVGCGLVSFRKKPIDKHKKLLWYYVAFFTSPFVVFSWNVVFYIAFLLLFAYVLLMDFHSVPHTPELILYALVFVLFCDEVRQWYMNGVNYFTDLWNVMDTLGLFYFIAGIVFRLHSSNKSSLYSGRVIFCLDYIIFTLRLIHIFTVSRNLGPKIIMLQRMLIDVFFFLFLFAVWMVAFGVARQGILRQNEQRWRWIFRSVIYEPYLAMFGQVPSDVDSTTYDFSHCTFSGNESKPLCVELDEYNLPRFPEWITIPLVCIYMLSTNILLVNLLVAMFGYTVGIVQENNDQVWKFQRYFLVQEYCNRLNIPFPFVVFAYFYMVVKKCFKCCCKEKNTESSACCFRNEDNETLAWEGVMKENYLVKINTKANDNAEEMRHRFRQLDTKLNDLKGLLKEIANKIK

[7] = Kinetic solubility of the compound in ph 7.4 PBS buffer measured after 24 hrs shaken by HPLC and UPLC system; assay type: physicochemical; conditions: read-out: Kinetic_solubility
Hippocampal neurone = experiment: Rescuing beta-amyloid induced neuronal cell damage in Sprague-Dawley rat primary hippocampal cell culture (composed of 60% primary neuron, 20% microglia and 20% astrocyte) assessed as decrease in soluble oligomeric Abeta-containing media (7PA2 cells) induced synaptic toxicity at 250 nM; assay type: functional, cell-based
[8] = Cytotoxicity against Sprague-Dawley rat primary hippocampal cells at 100 nM; assay type: toxicity, cell-based; conditions: hippocampal neurone, 0.1 µM

SMILES	inhibition [1]	inhibition ([1]; filed as antagonist)	also measured
CCN(CC)Cc1cnn(-c2ccc(-n3ccc(Cl)c(Cl)c3=O)cc2)c1C(F)(F)F	–	> 80%	–
CCNC(=O)c1cnn(-c2ccc(-n3ccc(C(F)(F)F)c(Cl)c3=O)cc2)c1C(F)(F)F	–	> 80%	–
O=C(c1cnn(-c2ccc(-n3ccc(Cl)c(Cl)c3=O)cc2)c1C(F)(F)F)N1CCCC1	–	> 80%	–
CCNC(=O)c1cnn(-c2ccc(-n3ccc(Cl)c(Cl)c3=O)cc2)c1S(C)(=O)=O	< 80%	–	–
CCNC(=O)c1cnn(-c2ccc(-n3ccc(Cl)c(Br)c3=O)cc2)c1C(F)(F)F	< 80%	–	–
CCNC(=O)c1cnn(-c2ccc(-n3ccc(Cl)c(Cl)c3=O)cc2)c1	–	> 97%	–
CCNC(=O)c1cnn(-c2ccc(-n3ccc(Cl)c(Cl)c3=O)cc2)c1C#N	–	> 80%	–
CCOC(=O)c1cnn(-c2ccc(NC(=O)C(Cl)=C(Cl)Cl)cc2)c1C(F)(F)F	–	> 80%	Activity [2]: inactive; Activity [3]: inactive; Activity [4]: inactive; Activity [5]: inactive; Activity [6]: inactive
CCNC(=O)c1cnn(-c2ccc(-n3ccc(OC)c(Cl)c3=O)cc2)c1C(F)(F)F	< 80%	–	–
NC(=O)c1cnn(-c2ccc(-n3ccc(Cl)c(Cl)c3=O)cc2)c1C(F)(F)F	< 80%	–	–
CCNC(=O)c1sc(-c2ccc(-n3ccc(Cl)c(Cl)c3=O)cc2)nc1C(F)(F)F	< 80%	–	–
CS(=O)(=O)c1cnn(-c2ccc(-n3ccc(Cl)c(Cl)c3=O)cc2)c1C(F)(F)F	< 80%	–	–
CC(C)NC(=O)c1cnn(-c2ccc(-n3ccc(Cl)c(Cl)c3=O)cc2)c1C(F)(F)F	< 80%	–	–
CCN(CC)C(=O)c1cnn(-c2ccc(-n3ccc(Cl)c(Cl)c3=O)cc2)c1C(F)(F)F	–	> 90%	–
O=C(NC1CC1)c1cnn(-c2ccc(-n3ccc(Cl)c(Cl)c3=O)cc2)c1C(F)(F)F	< 80%	–	–
CCNC(=O)c1cnn(-c2ccc(-n3ccc(Cl)c(Cl)c3=O)cc2)c1Cl	< 80%	–	–
CCCC(=O)c1cnn(-c2ccc(-n3ccc(Cl)c(Cl)c3=O)cc2)c1C(F)(F)F	< 80%	–	–
CCOCc1cnn(-c2ccc(-n3ccc(Cl)c(Cl)c3=O)cc2)c1C(F)(F)F	< 80%	–	–
CCNC(=O)c1cnn(-c2ccc(-n3ccc(Cl)c(Cl)c3=O)cn2)c1C(F)(F)F	< 80%	–	–
CCc1nnc(-c2cnn(-c3ccc(-n4ccc(Cl)c(Cl)c4=O)cc3)c2C(F)(F)F)o1	–	> 90%	–

The next lines start with results.

inhibition [1]	inhibition ([1]; filed as antagonist)	SMILES	also measured
< 80%	–	CCNC(=O)c1nnn(-c2ccc(-n3ccc(Cl)c(Cl)c3=O)cc2)c1C(F)(F)F	–
–	> 80%	CCNC(=O)c1nn(-c2ccc(-n3ccc(Cl)c(Cl)c3=O)cc2)nc1C(F)(F)F	–
< 80%	–	CCCCNC(=O)c1cnn(-c2ccc(-n3ccc(Cl)c(Cl)c3=O)cc2)c1C(F)(F)F	–
–	> 80%	CCC(=O)Nc1cnn(-c2ccc(-n3ccc(Cl)c(Cl)c3=O)cc2)c1C(F)(F)F	–
–	> 90%	CCNC(=O)c1ncn(-c2ccc(-n3ccc(Cl)c(Cl)c3=O)cc2)c1C(F)(F)F	–
< 80%	–	CCCNC(=O)c1cnn(-c2ccc(-n3ccc(Cl)c(Cl)c3=O)cc2)c1C(F)(F)F	–
–	> 90%	CCNC(=O)c1cnn(-c2ccc(-n3ccc(O)c(Cl)c3=O)cc2)c1C(F)(F)F	–
–	> 80%	CCNC(=O)c1cnn(-c2ccc(-n3ccc(Cl)c(Cl)c3=O)cc2)c1C(F)(F)F	Activity [2]: inactive; Activity [3]: inactive; Activity [4]: inactive; Activity [5]: inactive; Activity [6]: inactive; solubility kinetic at 24 h [7]: 144 µM (≈ 64.1 µg/mL); Activity (Hippocampal neurone): Active; Activity [8]: Non-toxic
–	> 80%	CNC(=O)c1cnn(-c2ccc(-n3ccc(Cl)c(Cl)c3=O)cc2)c1C(F)(F)F	–
–	> 97%	CCNC(=O)c1cn(-c2ccc(-n3ccc(Cl)c(Cl)c3=O)cc2)nc1C(F)(F)F	–
–	> 90%	CC(C)CNC(=O)c1cnn(-c2ccc(-n3ccc(Cl)c(Cl)c3=O)cc2)c1C(F)(F)F	–
–	> 80%	CC(=O)c1cnn(-c2ccc(-n3ccc(Cl)c(Cl)c3=O)cc2)c1C(F)(F)F	–
